Common to all, as to assay: NCI anticancer screen, dose series, 48 h
In test [1] the test system is SK-MEL-2 melanoma.
Test [2] deals with HT29 colon.
Test [3] deals with NCI/ADR-RES ovarian.
Test [4] deals with OVCAR-4 ovarian.
In test [5] the test system is A498 renal.
For test [6], the system named is HOP-92 NSCLC.
Test [7] deals with SNB-19 CNS.
For test [8], the system named is UACC-257 melanoma.
For test [9], the system named is 786-0 renal.
Test [10] deals with NCI-H226 lung.

SMILES strings stand for the structures. Where “and” joins values, the source holds several entries; their conditions need not be identical. Equal entries are not always repeated.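 Test compounds were applied to cells in 96-well plates for 48 hours at 5 doses. GI50 is the concentration that inhibits growth by half. Definition used: TGI = concentration required for complete inhibition of growth.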

Turning to `CN1C[C@@H]2Cn3c(c(C4=C(c5cn(C)c6ccccc56)C(=O)NC4=O)c4ccccc43)C[C@H]2C1`, the GI50 in [1] was 4.52 µM and 3.91 µM; in test [2], 3.87 µM and 3.22 µM; in [3], 6.46 µM and 8.53 µM; in test [4], 3.36 µM and 3.48 µM; in [5], 4.76 µM and 4.45 µM; in test [6], 6.76 µM. Also, the GI50 was 6.44 µM and 5.87 µM in test [7]; 4.03 µM and 3.93 µM in test [8]; 4.75 µM and 4.57 µM in test [9]; 4.53 µM and 4.06 µM in test [10]. For the same compound, the TGI in test [1] is 8.92 µM and 7.75 µM; in test [2], 10.8 µM and 11.6 µM; in test [3] it was 16.8 µM and 25 µM; in [4], 9.12 µM and 8.91 µM; in [5], 8.59 µM and 8.23 µM; in [6], 12.7 µM. In addition, the TGI is 18.4 µM and 16.4 µM in test [7]; 8.01 µM and 7.6 µM in test [8]; 9.33 µM and 8.9 µM in test [9]; 15 µM and 10.9 µM in test [10].

In the case of `Nc1cc(S(N)(=O)=O)ccc1SSc1ccc(S(N)(=O)=O)cc1N`, the TGI in test [1], in test [2], in [3], in test [4], in [5] and in [6] was more than 100 µM each time. For the same compound, the TGI in [7], in [8], in [9] and in [10] was more than 100 µM each time.

For the compound `CN(C)CCSCCO`, the TGI in test [1], in test [2], in test [3], in [4], in test [5] and in test [6] was more than 100 µM each time. The TGI in test [7], in [8], in [9] and in test [10] was more than 100 µM each time.

With `CSc1ccc(SC2c3ccc(C)cc3Oc3nc(N)c(C#N)c(N)c32)cc1` (stereo not given), the GI50 in test [1] is 2.11 µM; in test [2], 2.11 µM; in test [3], 2.22 µM; in [4], 1.59 µM; in test [5], 2.05 µM; in test [6], 1.9 µM. The GI50 in test [7] is 1.77 µM; in test [8], 1.81 µM; in test [9], 1.68 µM; in test [10], 1.81 µM. In addition, the TGI worked out at 4.12 µM in test [1]; 4.37 µM in test [2]; 5.46 µM in test [3]; 3.01 µM in test [4]; 3.95 µM in test [5]; 3.76 µM in test [6]. Moreover, the TGI in test [7] worked out at 3.16 µM; in [8], 3.24 µM; in [9], 3.07 µM; in test [10] it was 3.27 µM.

With `CC1(C)CC([P+](c2ccccc2)(c2ccccc2)c2ccccc2)=NN1`, the GI50 in test [1] was 5.09 µM; in [2], 3.29 µM; in test [3] it was more than 100 µM; in test [4], 3.07 µM; in test [5] it was 4.24 µM; in test [6], 3.75 µM. The GI50 in test [7] was 5.03 µM; in [8], 2.82 µM; in test [9], 26.6 µM; in test [10], 5.53 µM. In addition, the TGI is more than 100 µM in [1]; more than 100 µM in test [2]; more than 100 µM in test [3]; more than 100 µM in [4]; 35.7 µM in test [5]; 71.9 µM in test [6]. The TGI in test [7] is more than 100 µM; in test [8], more than 100 µM; in test [9], more than 100 µM; in [10] it was 84.5 µM.

For the compound `CN(CC(=O)O)Cc1oc(CO)cc(=O)c1O`, the TGI in test [1], in [2], in test [3], in test [4], in [5] and in [6] was more than 100 µM in each case. Also, the TGI in test [7], in test [8], in test [9] and in test [10] was more than 100 µM throughout.

In the case of `N#C/C(=C\c1c(-c2ccccc2)[nH]c2ccccc12)C(=O)c1ccccc1`, the GI50 in [1] was 35.2 µM; in test [2], 3.41 µM; in [3], 3.11 µM; in test [4], 65.3 µM; in test [5] it was 15.3 µM; in test [6], 4.51 µM. The GI50 in test [7] was 16.8 µM; in [8], 10.9 µM; in test [9], 16.5 µM; in test [10] it was 6.83 µM. Further, the TGI in [1] was more than 100 µM; in test [2], more than 100 µM; in test [3], more than 100 µM; in test [4], more than 100 µM; in test [5], more than 100 µM; in [6], 28.7 µM. In addition, the TGI in [7], in test [8], in test [9] and in test [10] was more than 100 µM in each case.

`Nc1ccc(C(OC(=O)c2cc3ccccc3c(Cc3c(O)c(C(=O)OC(c4ccc(N)cc4)(c4ccc(N)cc4)c4ccc(N)cc4)cc4ccccc34)c2O)(c2ccc(N)cc2)c2ccc(N)cc2)cc1`: the GI50 was 1.4 µM in [1]; 1.79 µM in [2]; 15.5 µM in test [3]; 2.03 µM in test [4]; 0.548 µM in test [5]; 1.15 µM in [6]. Moreover, the GI50 in [7] is 0.444 µM; in test [8], 0.426 µM; in test [9], 1.76 µM; in test [10], 1.76 µM. Further, the TGI was 4.55 µM in test [1]; 11.6 µM in test [2]; more than 100 µM in test [3]; 56.6 µM in test [4]; 5.25 µM in test [5]; 5.86 µM in test [6]. For the same compound, the TGI in [7] was 20.7 µM; in test [8] it was 5.96 µM; in test [9] it was 20.2 µM; in [10], 15.7 µM.
